ChEMBL document CHEMBL1201862, “PubChem BioAssay data set” (2004)
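96-well plates; 48 h exposure; 5 concentrations. Endpoints by linear interpolation between flanking doses. Not reached: highest tested concentration assigned. The concentration for 50% growth inhibition is given as GI50.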 Calls of active or inactive are those of the source. Rule as the data show it: active = GI50 up to about 1.1 µM and inactive = higher.

Legend:
Experiment in all cases: NCI-60 cell line screen, 48 h
SK-MEL-28 = tested on: SK-MEL-28
A549 = tested on: A549
Malme-3M = tested on: Malme-3M
K562 = tested on: K562
SNB-75 = tested on: SNB-75
SW-620 = tested on: SW-620
NCI-H460 = tested on: NCI-H460
OVCAR-5 = tested on: OVCAR-5
KM12 = tested on: KM12
NCI/ADR-RES = tested on: NCI/ADR-RES
UACC-257 = tested on: UACC-257
OVCAR-3 = tested on: OVCAR-3
SK-MEL-5 = tested on: SK-MEL-5
NCI-H522 = tested on: NCI-H522
MOLT-4 = tested on: MOLT-4
ACHN = tested on: ACHN
SK-OV-3 = tested on: SK-OV-3
NCI-H226 = tested on: NCI-H226
MDA-N = tested on: MDA-N
SF-295 = tested on: SF-295

Structure (SMILES)	GI50 (SK-MEL-28)	GI50 (A549)	GI50 (Malme-3M)	GI50 (K562)	GI50 (SNB-75)	GI50 (SW-620)	GI50 (NCI-H460)	GI50 (OVCAR-5)	GI50 (KM12)	GI50 (NCI/ADR-RES)	GI50 (UACC-257)	GI50 (OVCAR-3)	GI50 (SK-MEL-5)	GI50 (NCI-H522)	GI50 (MOLT-4)	GI50 (ACHN)	GI50 (SK-OV-3)	GI50 (NCI-H226)	GI50 (MDA-N)	GI50 (SF-295)
O=C(O)c1ccc(NCc2nc3cc4ccccc4cc3[nH]2)cc1	5.21 µM (inactive)	> 100 µM (inactive)	0.0462 µM (active)	> 100 µM (inactive)	98.6 µM (inactive)	> 100 µM (inactive)	> 100 µM (inactive)	> 100 µM (inactive)	> 100 µM (inactive)	> 100 µM (inactive)	2.63 µM (inactive)	> 100 µM (inactive)	> 21.4 µM (inactive)	> 100 µM (inactive)	> 100 µM (inactive)	> 100 µM (inactive)	> 100 µM (inactive)	> 100 µM (inactive)	> 100 µM (inactive)	> 100 µM (inactive)
O=C(O)/C=C\C(=O)Nc1ccc2c(c1)C(=O)c1cc(F)ccc1-2	> 100 µM (inactive)	> 100 µM (inactive)	> 100 µM (inactive)	> 100 µM (inactive)	> 100 µM (inactive)	> 100 µM (inactive)	> 100 µM (inactive)	> 100 µM (inactive)	> 100 µM (inactive)	> 100 µM (inactive)	> 100 µM (inactive)	> 100 µM (inactive)	> 100 µM (inactive)	56.2 µM (inactive)	> 100 µM (inactive)	> 100 µM (inactive)	> 100 µM (inactive)	> 100 µM (inactive)	> 100 µM (inactive)	> 100 µM (inactive)
COC(=O)c1sc2ncc3c(c2c1N)CCCCCC3	> 100 µM (inactive)	> 100 µM (inactive)	> 100 µM (inactive)	> 100 µM (inactive)	97.3 µM (inactive)	> 100 µM (inactive)	> 100 µM (inactive)	> 100 µM (inactive)	> 100 µM (inactive)	> 100 µM (inactive)	> 100 µM (inactive)	> 100 µM (inactive)	> 100 µM (inactive)	> 100 µM (inactive)	> 100 µM (inactive)	> 100 µM (inactive)	> 100 µM (inactive)	> 100 µM (inactive)	> 100 µM (inactive)	> 100 µM (inactive)
COc1ccc(/C=C(/C)[N+](=O)[O-])cc1	2.65 µM (inactive)	4.21 µM (inactive)	2.11 µM (inactive)	2.62 µM (inactive)	1.26 µM (inactive)	2.01 µM (inactive)	2.18 µM (inactive)	3.19 µM (inactive)	1.67 µM (inactive)	3.41 µM (inactive)	1.5 µM (inactive)	1.82 µM (inactive)	2.48 µM (inactive)	0.292 µM (active)	1.37 µM (inactive)	1.99 µM (inactive)	5.98 µM (inactive)	21.1 µM (inactive)	2.05 µM (inactive)	6.84 µM (inactive)
Cc1occc1/C(S)=N\c1ccc(Cl)c(C(=O)OCC2CC2)c1	72.6 µM (inactive)	> 100 µM (inactive)	88.5 µM (inactive)	18.8 µM (inactive)	23.9 µM (inactive)	54.7 µM (inactive)	57.9 µM (inactive)	> 100 µM (inactive)	32.3 µM (inactive)	33.3 µM (inactive)	22.3 µM (inactive)	52.2 µM (inactive)	41.2 µM (inactive)	21.9 µM (inactive)	14.9 µM (inactive)	34.5 µM (inactive)	35.6 µM (inactive)	53.2 µM (inactive)	41.6 µM (inactive)	29.4 µM (inactive)
